In brackets after ≈: the same amount, converted by molar mass.
Assays:
Format in all cases: functional
Streptococcus pneumoniae [1] = experiment: Antimicrobial activity against penicillin-susceptible Streptococcus pneumoniae PU09 incubated for 20 to 24 hrs by two-fold microbroth dilution method
Streptococcus pneumoniae [2] = experiment: Antimicrobial activity against erythromycin-susceptible Streptococcus pneumoniae ATCC 49619 incubated for 20 to 24 hrs by two-fold microbroth dilution method
Streptococcus pneumoniae [3] = experiment: Antimicrobial activity against Streptococcus pneumoniae 07P390 expressing constitutive ermB incubated for 20 to 24 hrs by two-fold microbroth dilution method
Staphylococcus aureus [4] = experiment: Antimicrobial activity against methicillin-resistant Staphylococcus aureus PU20 expressing constitutive ermC incubated for 20 hrs by two-fold microbroth dilution method; settings: PU20, 20 h
Haemophilus influenzae [5] = experiment: Antimicrobial activity against azithromycin-susceptible and ampicillin-resistant Haemophilus influenzae 11P037 incubated for 20 to 24 hrs by two-fold microbroth dilution method
Staphylococcus aureus [6] = experiment: Antimicrobial activity against methicillin-resistant Staphylococcus aureus PU32 expressing inducible ermA incubated for 20 hrs by two-fold microbroth dilution method; settings: PU32, 20 h
Streptococcus pyogenes [7] = experiment: Antimicrobial activity against Streptococcus pyogenes 01-968 expressing inducible ermA incubated for 20 to 24 hrs by two-fold microbroth dilution method
Streptococcus pyogenes [8] = experiment: Bactericidal activity against Streptococcus pyogenes 12-207 expressing mef incubated for 20 to 24 hrs followed by sub-culturing for 24 hrs in absence of compound
Staphylococcus aureus [9] = experiment: Ratio of MBC to MIC against methicillin-resistant Staphylococcus aureus PU32 expressing inducible ermA
Streptococcus pyogenes [10] = experiment: Bactericidal activity against Streptococcus pyogenes 01-968 expressing inducible ermA incubated for 20 to 24 hrs followed by sub-culturing for 24 hrs in absence of compound
Moraxella catarrhalis [11] = experiment: Ratio of MBC to MIC against erythromycin-susceptible Moraxella catarrhalis 11B366
Streptococcus pyogenes [12] = experiment: Ratio of MBC to MIC against Streptococcus pyogenes 12-207 expressing mef
Haemophilus influenzae [13] = experiment: Ratio of MBC to MIC against azithromycin-susceptible and ampicillin-resistant Haemophilus influenzae 11P037
Streptococcus pyogenes [14] = experiment: Antimicrobial activity against Streptococcus pyogenes 12-207 expressing mef incubated for 20 to 24 hrs by two-fold microbroth dilution method
Moraxella catarrhalis [15] = experiment: Antimicrobial activity against erythromycin-susceptible Moraxella catarrhalis 11B366 incubated for 20 hrs by two-fold microbroth dilution method; settings: 11B366, 20 h
Moraxella catarrhalis [16] = experiment: Bactericidal activity against erythromycin-susceptible Moraxella catarrhalis 11B366 incubated for 20 hrs followed by sub-culturing for 24 hrs in absence of compound
Haemophilus influenzae [17] = experiment: Bactericidal activity against azithromycin-susceptible and ampicillin-resistant Haemophilus influenzae 11P037 incubated for 20 to 24 hrs followed by sub-culturing for 24 hrs in absence of compound
Staphylococcus aureus [18] = experiment: Bactericidal activity against methicillin-resistant Staphylococcus aureus PU32 expressing inducible ermA incubated for 20 hrs followed by sub-culturing for 24 hrs in absence of compound

CC[C@H]1OC(=O)[C@H](C)[C@@H](OC(=O)Cc2ccccn2)[C@H](C)[C@@H](O[C@@H]2O[C@H](C)C[C@H](N(C)C)[C@H]2O)[C@](C)(OC)C[C@@H](C)/C(=N\OC/C=C/c2ccnc(NC(=O)Cc3ccccn3)c2)[C@H](C)[C@H]2OC(=O)O[C@@]21C
MIC (Streptococcus pneumoniae [1]): 4 µg/mL (≈ 4 µM) | MIC (Streptococcus pneumoniae [2]): 0.125 µg/mL (≈ 0.125 µM) | MIC (Streptococcus pneumoniae [3]): 4 µg/mL (≈ 4 µM) | MIC (Staphylococcus aureus [4]): > 64 µg/mL | MIC (Haemophilus influenzae [5]): > 64 µg/mL | MIC (Staphylococcus aureus [6]): 4 µg/mL (≈ 4 µM) | MIC (Streptococcus pyogenes [7]): 4 µg/mL (≈ 4 µM)

CC[C@H]1OC(=O)[C@H](C)[C@@H](OC(=O)Cc2ccccn2)[C@H](C)[C@@H](O[C@@H]2O[C@H](C)C[C@H](N(C)C)[C@H]2O)[C@](C)(OC)C[C@@H](C)/C(=N\OC/C=C/c2cccnc2N)[C@H](C)[C@H]2OC(=O)O[C@@]21C
MIC (Streptococcus pneumoniae [1]): 1 µg/mL (≈ 1.13 µM) | MIC (Streptococcus pneumoniae [2]): 0.062 µg/mL (≈ 0.0703 µM) | MIC (Streptococcus pneumoniae [3]): 4 µg/mL (≈ 4.53 µM) | MIC (Staphylococcus aureus [4]): > 64 µg/mL | MIC (Haemophilus influenzae [5]): 32 µg/mL (≈ 36.3 µM) | MIC (Staphylococcus aureus [6]): 1 µg/mL (≈ 1.13 µM) | MIC (Streptococcus pyogenes [7]): 2 µg/mL (≈ 2.27 µM)

CC[C@H]1OC(=O)[C@H](C)C(=O)[C@H](C)[C@@H](O[C@@H]2O[C@H](C)C[C@H](N(C)C)[C@H]2O)[C@](C)(OC)C[C@@H](C)C(=O)[C@H](C)[C@H]2N(CCCCn3cnc(-c4cccnc4)c3)C(=O)O[C@]12C [TELITHROMYCIN]
MBC (Streptococcus pyogenes [8]): 1 µg/mL (≈ 1.23 µM) | Ratio (Staphylococcus aureus [9]): >8 | MIC (Streptococcus pneumoniae [1]): 0.25 µg/mL (≈ 0.308 µM) | MBC (Streptococcus pyogenes [10]): 0.125 µg/mL (≈ 0.154 µM) | MIC (Streptococcus pneumoniae [2]): 0.031 µg/mL (≈ 0.0382 µM) | MIC (Streptococcus pneumoniae [3]): 0.062 µg/mL (≈ 0.0764 µM) | Ratio (Moraxella catarrhalis [11]): 1 | MIC (Staphylococcus aureus [4]): > 64 µg/mL | Ratio (Streptococcus pyogenes [12]): 2 | Ratio (Haemophilus influenzae [13]): 4 | MIC (Streptococcus pyogenes [14]): 0.5 µg/mL (≈ 0.616 µM) | MIC (Moraxella catarrhalis [15]): 0.25 µg/mL (≈ 0.308 µM) | MBC (Moraxella catarrhalis [16]): 0.25 µg/mL (≈ 0.308 µM) | MIC (Haemophilus influenzae [5]): 2 µg/mL (≈ 2.46 µM) | MIC (Staphylococcus aureus [6]): 0.25 µg/mL (≈ 0.308 µM) | MBC (Haemophilus influenzae [17]): 4 µg/mL (≈ 4.93 µM) | MBC (Staphylococcus aureus [18]): > 1 µg/mL | MIC (Streptococcus pyogenes [7]): 2 µg/mL (≈ 2.46 µM)

CC[C@H]1OC(=O)[C@H](C)[C@@H](OC(=O)Cc2ccccn2)[C@H](C)[C@@H](O[C@@H]2O[C@H](C)C[C@H](N(C)C)[C@H]2O)[C@](C)(OC)C[C@@H](C)/C(=N\OC/C=C/c2cncc(NC(=O)Cc3ccccn3)c2)[C@H](C)[C@H]2OC(=O)O[C@@]21C
MIC (Streptococcus pneumoniae [1]): 2 µg/mL (≈ 2 µM) | MIC (Streptococcus pneumoniae [2]): 0.062 µg/mL (≈ 0.0619 µM) | MIC (Streptococcus pneumoniae [3]): 2 µg/mL (≈ 2 µM) | MIC (Staphylococcus aureus [4]): > 64 µg/mL | MIC (Haemophilus influenzae [5]): > 64 µg/mL | MIC (Staphylococcus aureus [6]): 2 µg/mL (≈ 2 µM) | MIC (Streptococcus pyogenes [7]): 4 µg/mL (≈ 4 µM)

CC[C@H]1OC(=O)[C@H](C)[C@@H](OC(=O)Cc2ccccn2)[C@H](C)[C@@H](O[C@@H]2O[C@H](C)C[C@H](N(C)C)[C@H]2O)[C@](C)(OC)C[C@@H](C)/C(=N\OCC#Cc2ccc(N)nc2)[C@H](C)[C@H]2OC(=O)O[C@@]21C
MIC (Streptococcus pneumoniae [1]): 0.5 µg/mL (≈ 0.568 µM) | MIC (Streptococcus pneumoniae [2]): 0.008 µg/mL (≈ 0.00909 µM) | MIC (Streptococcus pneumoniae [3]): 2 µg/mL (≈ 2.27 µM) | MIC (Staphylococcus aureus [4]): > 64 µg/mL | MIC (Haemophilus influenzae [5]): 32 µg/mL (≈ 36.4 µM) | MIC (Staphylococcus aureus [6]): 0.5 µg/mL (≈ 0.568 µM) | MIC (Streptococcus pyogenes [7]): 1 µg/mL (≈ 1.14 µM)

CC[C@H]1OC(=O)[C@H](C)[C@@H](OC(=O)Cc2ccccn2)[C@H](C)[C@@H](O[C@@H]2O[C@H](C)C[C@H](N(C)C)[C@H]2O)[C@](C)(OC)C[C@@H](C)/C(=N\OC/C=C/c2ccc(N)nc2)[C@H](C)[C@H]2OC(=O)O[C@@]21C
MIC (Streptococcus pneumoniae [1]): 1 µg/mL (≈ 1.13 µM) | MIC (Streptococcus pneumoniae [2]): 0.031 µg/mL (≈ 0.0351 µM) | MIC (Streptococcus pneumoniae [3]): 1 µg/mL (≈ 1.13 µM) | MIC (Staphylococcus aureus [4]): > 64 µg/mL | MIC (Haemophilus influenzae [5]): 32 µg/mL (≈ 36.3 µM) | MIC (Staphylococcus aureus [6]): 0.5 µg/mL (≈ 0.567 µM) | MIC (Streptococcus pyogenes [7]): 4 µg/mL (≈ 4.53 µM)

CC[C@H]1OC(=O)[C@H](C)[C@@H](OC(=O)Cc2ccccn2)[C@H](C)[C@@H](O[C@@H]2O[C@H](C)C[C@H](N(C)C)[C@H]2O)[C@](C)(OC)C[C@@H](C)/C(=N\OCCCc2cncc(NC(=O)Cc3ccccn3)c2)[C@H](C)[C@H]2OC(=O)O[C@@]21C
MIC (Streptococcus pneumoniae [1]): 4 µg/mL (≈ 3.99 µM) | MIC (Streptococcus pneumoniae [2]): 0.125 µg/mL (≈ 0.125 µM) | MIC (Streptococcus pneumoniae [3]): 4 µg/mL (≈ 3.99 µM) | MIC (Staphylococcus aureus [4]): > 64 µg/mL | MIC (Haemophilus influenzae [5]): > 64 µg/mL | MIC (Staphylococcus aureus [6]): 4 µg/mL (≈ 3.99 µM) | MIC (Streptococcus pyogenes [7]): 8 µg/mL (≈ 7.97 µM)
